# Source: patent US11918597B2, “Triple combination therapies for anti-aging” (LUNELLA BIOTECH, INC., priority 2018, dated 2024)
# Read-outs that look alike come from different tables or passages of the source.
# Legend:
# CSCs = assay: CSC propagation / CSC inhibition activity (cell line not stated); type: cell-based
# MCF7 cells [1] = assay: Mammosphere formation assay (CSC propagation); type: cell-based, human; settings: for inhibition at 250 µM: suspension treatment 5-days, doxycycline 1 μM, azithromycin 1 μM, Vitamin C 250 μM, read-out: MFE (% Inhibition ± SD); for IC50: MCF7 cells (FIG. 15), read-out: half maximal inhibitory concentration (IC50), mammosphere assay
# Method: The following paragraphs discuss laboratory data and analysis for select embodiments of the present approach. Doxycycline and azithromycin were tested alone and in combination at low concentrations to evaluate the resulting inhibitory effect on mammosphere formation. FIGS. 1A-1C summarize mammosphere formation data for varying concentrations and combinations.
# The temporal effects of pre-treatment on the efficacy of the present approach have been evaluated in the pre-clinical setting, using CSC propagation as the measurement. […] This may be due to MCF7 cells' ability to induce oxidative stress, driving an anti-oxidant response. Given these […] results, it appears embodiments of the present approach that simultaneously co-administer all three therapeutic agents appear to have the most significant impact on the CSC population, and are preferred. […] However, some embodiments may call for administering therapeutic agents within a narrow window, such as 1-3 hours, over multiple days (e.g., 3-7 days in some embodiments, 4-14 days in some embodiments). The antibiotics may be administered in oral form (e.g., pill or tablet), while the Vitamin C is administered intravenously in some embodiments. In others, all three therapeutic agents may be administered orally, either as separate pills or tabs, or as a single concoction containing each therapeutic agent.
# Mammosphere Formation Assay: A single cell suspension was prepared using enzymatic (lx Trypsin-EDTA, Sigma Aldrich, #T3924), and manual disaggregation (25 gauge needle). Cells were plated at a density of 500 cells/cm2 in mammosphere medium (DMEM-F12+B27+20 ng/ml EGF+PenStrep) under non-adherent conditions, in culture dishes pre-coated with (2-hydroxyethylmethacrylate) (poly-HEMA, Sigma, #P3932), called “tumor-sphere plates”. Vehicle alone (DMSO) control cells were processed in parallel. Cells were grown for 5 days and maintained in a humidified incubator at 37° C. After 5 days of culture, 3D mammospheres >50 μm were counted using an eye piece (“graticule”), and the percentage of cells plated which formed spheres was calculated and is referred to as percent mammosphere formation (MFE, and was normalized to one (1=100% MSF).
# [2] = oral administration; cited from earlier work
# U937 cells = settings: 15 minutes, media containing 3 μM Vitamin C; cited from earlier work
# MCF7 cells [3] = assay: Metabolic flux analysis (Seahorse XFe96, OCR and ECAR); type: cell-based, human; settings: MCF7 monolayers pre-treated 3-days, doxycycline 1 μM, azithromycin 1 μM, Vitamin C 250 μM as applicable
# Method: Metabolic Flux Analysis: Real-time oxygen consumption rates (OCR) and extracellular acidification rates (ECAR) rates in MCF7 cells were determined using the Seahorse Extracellular Flux (XFe96) analyzer (Seahorse Bioscience, USA). Briefly, 1.5×10^4 cells per well were seeded into XFe96 well cell culture plates, and incubated overnight to allow cell attachment. Then, cells were treated with antibiotics for 72 h. Vehicle-alone control cells were processed in parallel. After 72 hours of incubation, cells were washed in pre-warmed XF assay media (or for OCR measurement, XF assay media supplemented with 10 mM glucose, 1 mM Pyruvate, 2 mM L-glutamine and adjusted at 7.4 pH). Cells were then maintained in 175 μL/well of XF assay media at 37° C., in a non-CO2 incubator for 1 hour. During the incubation time, we loaded 25 μL of 80 mM glucose, 9 μM oligomycin, and 1M 2-deoxyglucose (for ECAR measurement) or 10 μM oligomycin, 9 μM FCCP, 10 μM rotenone, 10 μM antimycin A (for OCR measurement), in XF assay media into the injection ports in the XFe96 sensor cartridge. Measurements were normalized by protein content (Bradford assay). Data sets were analyzed using XFe96 software and GraphPad Prism software, using one-way ANOVA and Student's t-test calculations. All experiments were performed in quintuplicate, three times independently.
# rat heart = settings: conditions of hypoxia, Vitamin C alone; cited from earlier work
# senescent fibroblasts = assay: Senolytic activity on senescent fibroblasts; type: cell-based; settings: azithromycin by itself
# Text: Embodiments of the present approach also have implications for improving health-span and life-span. Azithromycin, by itself, is an FDA-approved drug with remarkable senolytic activity that targets and removes senescent fibroblasts, such as myo-fibrobasts. This senolytic activity has considerable efficiency, approaching nearly 97%. The accumulation of pro-inflammatory senescent cells is thought to be the primary cause of many aging-associated diseases, such as heart disease, diabetes, dementia and cancer, for example. Since cancer-associated fibroblasts (CAFs) are senescent myo-fibroblasts, with tumor promoting activity, triple combination embodiments of the present approach with Azithromycin may also effectively target the glycolytic tumor stroma of aggressive and metastatic cancers, especially those bearing the metabolic hallmarks of the “Reverse Warburg Effect.” In some embodiments, the composition prevents acquisition of a senescence-associated secretory phenotype. In some embodiments, the composition facilitates tissue repair and regeneration. In some embodiments, the composition increases at least one of organismal life-span and health-span.
# senescent MRC-5 cells = assay: BrdU-induced senescence senolytic assay (SRB / xCELLigence); type: cell-based, human; settings: BrdU-treated MRC-5 fibroblasts; even at concentrations as low as 25 μM
# Method: (§1) Bromodeoxyuridine (5-bromo-2′-deoxyuridine), also known as BrdU, was used to induce senescence. BrdU is an analog of the nucleoside thymidine commonly used to identify proliferating cells. BrdU induces controlled DNA damage, and drives cells towards senescence with high efficiency. The BrdU assay of the present approach calls for subjecting normal fibroblasts to prolonged culture (8-days) in the presence of BrdU at 100 μM to induce controlled DNA-damage and senescence. […] Then, isogenically-matched cultures of normal and senescent fibroblasts may be used for drug screening to identify drugs having senolytic activity. Senolytic activity may be detected using the sulforhodamine B assay, also known in the art as the SRB assay. This assay measures the amount of protein remaining attached to the tissue-culture dishes, and is a surrogate marker for cell viability. This approach may be used to rapidly screen compounds, including clinically-approved drugs, such as, for example, antibiotics. For example, in embodiments described herein, the present approach was used to screen erythromycin family members, including azithromycin and roxithromycin, among other compounds and conjugates. It should be appreciated that the present approach may be used to screen other compounds.
# bulk MCF7 cells = assay: Cell viability, bulk MCF7 cells; type: cell-based, human; settings: range of concentrations, up to 20 μM
# Text: Embodiments of therapeutic agents conjugated with targeting signals have shown less toxicity in bulk cancer cells and normal fibroblasts compared to unconjugated therapeutic agents. For example, FIGS. 17A and 17B show cell viability data for doxycycline and the doxycycline-myristate conjugate shown as compound [1], for bulk MCF7 cells and bulk BJ cells, respectively. The data represents cell viability expressed as a percentage of a control. […] Similar behavior has been seen in other therapeutic agents conjugated with targeting signals.
# bulk BJ cells = assay: Cell viability, bulk BJ cells; type: cell-based, human; settings: bulk BJ cells (normal fibroblasts); range of concentrations, up to 20 μM
# Method: as §1, with “For example, in embodiments described herein, the present approach was used to screen erythromycin family members, including azithromycin and roxithromycin, among other compounds and conjugates. It should be appreciated that the present approach may be used to screen other compounds.” left out
# Embodiments of therapeutic agents conjugated with targeting signals have shown less toxicity in bulk cancer cells and normal fibroblasts compared to unconjugated therapeutic agents. […] The data represents cell viability expressed as a percentage of a control. […]
structure (smiles),measurement,setting,value
CCCCCCCCCCCCCC(=O)N(C)[C@H]1C[C@@H](C)O[C@@H](O[C@@H]2[C@@H](C)[C@H](O[C@H]3C[C@@](C)(OC)[C@@H](O)[C@H](C)O3)[C@@H](C)C(=O)O[C@H](CC)[C@@](C)(O)[C@H](O)[C@@H](C)N(C)C[C@H](C)C[C@@]2(C)O)[C@@H]1O [Compound [15]],potency for CSCs compared to azithromycin alone,CSCs,improved
same,selectivity for CSCs compared to azithromycin alone,CSCs,improved
"O=C1O[C@H]([C@@H](O)CO)C(O)=C1O [Vitamin C, Ascorbic Acid]",inhibition at 250 µM,"MCF7 cells [1]; Homo sapiens, MCF7, Monolayer pre-treatment D + A 7-days",39.1%
same,inhibition at 250 µM,"MCF7 cells [1]; Homo sapiens, MCF7, Monolayer pre-treatment Vit C 7-days",49.2%
same,peak Vitamin C concentration in blood/serum/plasma,[2],about 250 μM
same,Vitamin C level reached in the mitochondria,U937 cells,5 mM
same,ATP production / ATP levels,MCF7 cells [3],significantly increased
same,basal and maximal respiration,MCF7 cells [3],significantly increased
same,glycolysis / glycolytic function (ECAR),MCF7 cells [3],significantly increased
same,glycolytic reserve,MCF7 cells [3],significantly increased
same,glycolytic reserve capacity,MCF7 cells [3],decreasing
same,"oxidative mitochondrial metabolism (OCR, mitochondrial oxygen consumption)",MCF7 cells [3],significantly increased
same,ATP production / ATP levels,MCF7 cells [3]; listed as low-dose Vitamin C,increased
same,basal and maximal respiration,MCF7 cells [3]; listed as low-dose Vitamin C,increased
same,glycolysis / glycolytic function (ECAR),MCF7 cells [3]; listed as low-dose Vitamin C,increased
same,"oxidative mitochondrial metabolism (OCR, mitochondrial oxygen consumption)",MCF7 cells [3]; listed as low-dose Vitamin C,increases
same,increase of mitochondrial ATP production,rat heart,up to 1.5 fold
CC[C@H]1OC(=O)[C@H](C)[C@@H](O[C@H]2C[C@@](C)(OC)[C@@H](O)[C@H](C)O2)[C@H](C)[C@@H](O[C@@H]2O[C@H](C)C[C@H](N(C)C)[C@H]2O)[C@](C)(O)C[C@@H](C)CN(C)[C@H](C)[C@@H](O)[C@]1(C)O [azithromycin],inhibition of mammosphere formation,MCF7 cells [1]; alone at low concentrations (0.1 μM and 1 μM),little or no effect
same,"senolytic activity, efficiency of removing senescent fibroblasts",senescent fibroblasts,~97%
C[C@H]1c2cccc(O)c2C(=O)C2=C(O)[C@]3(O)C(=O)C(C(N)=O)=C(O)[C@@H](N(C)C)[C@@H]3[C@@H](O)[C@@H]21 [doxycycline],IC50,MCF7 cells [1]; Homo sapiens,18.1 µM
"CCCCCCCCCCCCCC(=O)N(C)[C@H]1C[C@@H](C)O[C@@H](O[C@@H]2[C@@H](C)[C@H](O[C@@H]3C[C@@](C)(OC)[C@@H](O)[C@H](C)O3)[C@@H](C)C(=O)O[C@H](CC)[C@@](C)(O)[C@H](O)[C@@H](C)N(C)C[C@H](C)C[C@@]2(C)O)[C@@H]1O [azithromycin—fatty acid conjugate, N-[(2S,3R,4S,6R)-2-[ [(2R,3S,4R,5R,8R,10R,11R,12S,13S,14R)-2-ethyl-3,4,10-trihydroxy-13-[(2S,4R,5S,6S)-5-hydroxy-4-methoxy-4,6-dimethyl-tetrahydropyran-2-yl]oxy-3,5,6,8,10,12,14-heptamethyl-15-oxo-1-oxa-6-azacyclopentadec-11-yl]oxy]-3-hydroxy-6-methyl-tetrahydropyran-4-yl]-N-methyl-tetradecanamide]","senescent MRC-5 cells targeted (final cell index after 5 days, xCELLigence)",senescent MRC-5 cells,~100%
"CCCCCCCCCCCCCC(=O)Nc1ccc2c(c1O)C(=O)C1=C(O)[C@]3(O)C(=O)C(C(N)=O)=C(O)[C@@H](N(C)C)C3[C@@H](O)C1[C@H]2C (stereo partly drawn) [doxycycline-myristate conjugate, (4S,5S,6R,12aS)-4-(dimethylamino)-3,5,10,12,12a-pentahydroxy-6-methyl-1,11-dioxo-9-(tetradecanoylamino)-4a,5,5a,6-tetrahydro-4H-tetracene-2-carboxamide]",toxicity (cell viability as percentage of control),bulk MCF7 cells,less toxic than doxycycline
same,inhibition at 2.5 µM,"MCF7 cells [1]; Homo sapiens, MCF7, 2.5 μM, read-out: inhibition of MCF7 mammosphere formation relative to the control",40 to 60%
same,IC50,MCF7 cells [1]; Homo sapiens,3.46 µM
same,potency in mammosphere assay compared with doxycycline (FIG. 14),"MCF7 cells [1]; MCF7, 1.5 μM, 3 μM, 6 μM, 12 μM",more potent than unconjugated doxycycline
same,CSC inhibition activity compared with the unconjugated antibiotic,CSCs; fatty acid moiety is myristate (n is 12),better CSC inhibitory properties
same,toxicity (cell viability as percentage of control),bulk BJ cells,less toxic than doxycycline
